Results published in patent US8197872B2, “Human milk oligosaccharides to promote growth of beneficial gut bacteria” (The Regents of the University of California, priority 2007, dated 2012).

Columns and labels:
[1] = system: B. longum bv. longum DJO10A; assay: FTICR-MS HMO consumption glycoprofiling of bacterial fermentation; assay type: cell-based, Bifidobacterium longum bv. longum; details: 45 hrs
Text: (§1) Bifidobacterium longum bv. infantis ATCC 15697 and B. breve ATCC 15700 were obtained from the American Type Culture Collection (Manassas, Va.), B. longum bv. longum DJO10A was from D. O'Sullivan, University of Minnesota. Cultures were initially propagated in deMan, Rogosa, Sharpe broth (Becton Dickinson, Sparks, Md.) then grown twice on a semi-synthetic MRS medium, devoid of a carbohydrate source (Barrangou et al., Proceedings of the National Academy of Sciences of the United States of America (2003) 100, (15), 8957-8962). This medium was supplemented with 2.0% (w/v) sterile filtered (Millex-GV, 0.22 μm, Millipore, Billerica, Mass.) HMO as the only carbohydrate source. […] Cell growth was measured by assessing optical density at 600 nm with a ND-1000 Spectrophotometer (NanoDrop Technologies, Wilmington, Del.). […]
(§2) All mass spectra were acquired on a HiResESI QFT-hybrid Fourier transform ion cyclotron resonance mass spectrometer with a 9.4 Tesla shielded superconducting magnet (IonSpec Corp., Irvine, Calif.). […] Ion excitation was performed by arbitrary waveform with amplitude of 125.0 V (base-to-peak) and detected by direct broadband mode at a rate of 1 MHz and 512K data points. Each spectrum was recorded with one acquisition scan in the positive ion mode.
(§3) The D/H ratios were calculated using Formula 1 adapted from Xie et al. (Xie et al., Analytical Chemistry (2004) 76, (17), 5186-5197). […]

[2] = system: B. breve ATCC 15700; assay: as above; assay type: cell-based, Bifidobacterium breve; details: 45 hrs
Text: as §1, §2, §3

[3] = system: sialidase (EC 3.2.1.18) of B. breve ATCC 15700; assay: Glycosyl hydrolase assay, sialidase in cell-free extract; assay type: cell-based; details: cells grown with 1% (w/v) of the substance as sole carbon source
Procedure: (§4) Assayed cells were incubated anaerobically at 37° C. on semi-synthetic MRS medium (Barrangou et al., Proceedings of the National Academy of Sciences of the United States of America (2003) 100: 8957-8962), with 1% (w/v) sterile filtered lactose or HMO as the sole carbon source. Early stationary phase cells were harvested and 200 mg of 0.1 mm diameter glass beads (BioSpec Products, Bartlesville, Okla.) were added to the suspensions which were subjected to two cycles of 45 s at power 6.0 m s^−1 on a FastPrep FP120 cell disruptor (Qbiogene, Morgan Irvine, Calif.). The beads and cell debris were removed by centrifugation. Cell-free extracts were collected and kept temporarily on ice until the start of the enzyme assays. Protein concentrations were determined according to the Bradford method using bovine serum albumin as the standard (Bradford, M. M., Analytical Biochemistry (1976) 72, (1-2), 248-254). Activity of α-L-fucosidase (EC 3.2.1.51) and sialidase (EC 3.2.1.18) were assayed with the fluorogenic substrates, 4-methylumbelliferyl α-L-fucopyranoside and 2′-(4-methylumbelliferyl) α-D-N-acetylneuraminic acid respectively. Fucosidase activity was assayed with a fluorogenic substrate concentration of 1 mM in 0.2 M phosphate-citrate buffer (pH 5.2), while the sialidase assay employed 0.5 mM of substrate mixed in equal volume with 50 μl 0.25 M sodium acetate-acetic acid buffer (pH 4.3). The reaction mixture containing 100 μl of cell-free extract and 100 μL substrate solution were incubated for 1 hr at 37° C. with the reaction stopped with 1.3 mL of 0.17 M glycine-carbonate buffer, pH 9.8. The fluorescence of enzymatically liberated 4-methylumbelliferone was determined in a Bio-Rad VersaFluor fluorometer (Eureka, Calif.) by excitation at 360 nm and emission measured at 460 nm. Serially diluted 4-methylumbelliferone was used to calibrate relative fluorescence units with substrate concentration. The specific activity of the glycosyl hydrolase was expressed as nanomoles of hydrolyzed substrate per milligram of protein per hour. Assays were performed in duplicates and the standard error was reported.

[4] = system: sialidase (EC 3.2.1.18) of B. infantis ATCC 15697; assay: as above; assay type: cell-based
Procedure: as §4

[5] = system: sialidase (EC 3.2.1.18) of B. longum DJO10A; assay: as above; assay type: cell-based; details: cells grown with 1% (w/v) of the substance as sole carbon source
Procedure: as §4

[6] = media supplemented with 2.0% (w/v) HMO

| SMILES | consumption of the overall detectable HMO pool represented by LNT metabolism ([1]; 2.0% (w/v) HMO) [%] | consumption of the HMO species [1, 6] [%] | consumption of the overall detectable HMO pool represented by LNT metabolism ([2]; 2.0% (w/v) HMO) [%] | consumption of the HMO species [2, 6] [%] | Sialidase [3] [nmol/min/mg protein] | Sialidase ([4]; cells grown with 1% (w/v) of the substance as sole carbon source) [nmol/min/mg protein] | higher sialidase activity of B. longum bv. infantis compared to B. breve ([4]; grown on lactose) [fold] | higher sialidase activity of B. longum bv. infantis compared to B. longum ([4]; grown on lactose) [fold] | Sialidase [5] [nmol/min/mg protein] |
| --- | --- | --- | --- | --- | --- | --- | --- | --- | --- |
| CC(=O)N[C@H]1[C@H](O[C@H]2[C@@H](O)[C@@H](CO)O[C@@H](O[C@H]3[C@H](O)[C@@H](O)C(O)O[C@@H]3CO)[C@@H]2O)O[C@H](CO)[C@@H](O)[C@@H]1O[C@@H]1O[C@H](CO)[C@H](O)[C@H](O)[C@H]1O (stereo partly drawn) [lacto-N-tetraose] | 7.3 | 35.2 | 5.1 | 24.4 | – | – | – | – | – |
| OC[C@H]1O[C@@H](O[C@H]2[C@H](O)[C@@H](O)C(O)O[C@@H]2CO)[C@H](O)[C@@H](O)[C@H]1O (stereo partly drawn) [lactose] | – | – | – | – | 0.32 ± 0.03 | 10.8 ± 1.0 | 33.7 | 16.6 | 0.65 ± 0.03 |
